From US20090030037A1, “Sustained Release Formulation and Dosing Schedules of Leukotriene Synthesis Inhibitor for Human Therapy” (deCODE Genetics ehf., priority 2005, published 2009)

Tests used:
[1] = Population pharmacokinetic analysis (studies DG-031-201, DG-031-203); type: in vivo, human
Method: Preliminary population pharmacokinetic (PK) analysis was also carried out based on clinical studies DG-031-201 and DG-031-203. Based on visual inspection of the individual and mean time course of DG-031 concentrations, a simple one compartmental disposition model following first order oral absorption, and an absorption lag time was fit to the data. A mixed effects modeling approach was used. The pharmacokinetic model parameters (fixed effects) included oral clearance (CL), distribution volume (V), oral absorption (ka), and absorption lag (tiag). The statistical model includes inter-individual random effects as well as a residual error term. All inter-subject random effect parameters (it's) and residual error terms (&) are assumed to be normally distributed with mean of zero and variance o2 and a2, respectively. Random effects on all pharmacokinetic model parameters were explored. Maximum likelihood estimates of the structural (0's) and statistical model parameters were estimated using an approximation to the mixed effect log-likelihood as implemented in the NONMEM program (NONMEM Version Vi).
The influence of patient characteristics (covariates) on pharmacokinetic parameters was explored. Age, gender, body weight, and CrCL (creatinine clearance) were included in the model as covariates if warranted.
Model selection will be done on the basis of the log-likelihood criterion (p<0.05) and visual inspection of goodness-of-fit plots. The difference in −2 times the log of the likelihood (−2LL) between a full and reduced model is asymptotically χ^2 distributed with degrees of freedom equal to the difference in number of parameters between the two models. For instance, a decrease of more than 3.84 in −2LL is considered significant at the p<0.05 level for 1 additional parameter. Standard errors of the parameter estimates are approximated using the asymptotic covariance matrix.

sICAM = test: Study DG-031-201: ICAM (sICAM-1); type: in vivo, human; details: [0%,6%], p=0.03
Method: Patients who met the study eligibility criteria were enrolled and randomized into 3 different dose-level groups: (1) 64 patients on 250 mg/day therapy with DG-031 (250 mg q.d.), vs placebo; (2) 64 patients on 500 mg/day therapy with DG-031 (250 mg b.i.d.) vs placebo; and (3) 63 patients on 750 mg/day therapy with DG-031 (250 mg t.i.d.) vs placebo. […] All patients received 3 tablets per day. Treatment periods, 4 weeks in duration each, were separated by a 2-week washout period. The placebo tablets were identical in shape, color, form and taste to the active tablets except that they contained no active drug ingredients. Treatment with DG-031 or placebo was in addition to the subject's standard care, including all medications and treatment plan as prescribed by the subject's cardiologist prior to enrolment. A total of 191 subjects were enrolled, with 172 completing all 8 visits or 8 patients short of the target of 180 patients. […]
All data were analyzed according to a pre-established statistical analysis plan (SAP) and by intention-to-treat (ITT). […] The difference between DG-031 and placebo treatment was the primary outcome, assessed separately for each of the biomarkers. […]

## O=C(O)[C@@H](c1ccc(OCc2ccc3ccccc3n2)cc1)C1CCCC1 [DG-031, (R)-(+)-alpha-cyclopentyl-4-(2-quinolinylmethoxy)-Benzeneacetic acid]
[1]; 250 mg to 1500 mg administered daily
  PK linearity: linear PK
[1]; 90 kg patient
  oral CL: 5.86 L/h
[1]; BID dosing
  Accumulation: 12%
[1]; human, plasma, oral
  V (distribution volume): 32 L
  V, inter-subject CV %: 44%
[1]; human, plasma, oral, MI patients, estimated, read-out: Terminal elimination half-life (converted)
  half-life: ~4 h
[1]; in vivo
  Effect of body weight on CL: minor effects
sICAM
  Effect on serum sICAM-1: reduced significantly
